Data as given in patent publication EP0472573B1, “HERBICIDE RESISTANT MAIZE” (ZENECA LIMITED, priority 1989, dated 1990).
pIC50: −log10 of the molar value. Read-outs that look alike come from different tables or passages of the source.

Legend:
Assay type in all cases: biochemical, Zea mays
[1] = target: ALS enzyme extracted from Mutant 1 (heterozygous); test: ALS enzyme assay, heterozygous Mutant 1; conditions: for pIC50: ALS of heterozygous Mutant 1, read-out: ID50% (the source's name); for resistance group, Enzyme Assay: Mutant 1, groups Strong, Intermediate, Weak, Zero; for Fold Increase: fold increase in resistance vs wild type, heterozygous Mutant 1, 30 min
Procedure: (§1) Seeds of generation M₁BC₁ M₁BC₂ of the nine mutants were sprayed pre-emergence with the herbicide imazethapyr (PURSUIT) (Trade Mark) at a rate of 250 g/ha and grown in a growth chamber (16 hour day, 27°C; 8 hour night, 17°C). Plants were harvested after 11 days.
(§2) Four grams of leaf material were harvested from just above the first leaf axis and ground in a mortar and pestle in 20ml of a solution containing 40mM Tricine (Trade Mark), 10mM EDTA, 5mM pyruvate, 80 »M flavin adenine dinucleotide (FAD), 1mM dithiothreitol (DTT), pH 8, plus 0.8g Polyclar AT. The homogenate was pressed through four layers of muslin and centrifuged at 30,000g for 20 minutes.
(§3) The supernatant was brought to 65% saturation with ammonium sulphate, left to precipitate for 30 minutes and then centrifuged at 30.000g for 20 minutes. The pellet was resuspended in 2.5ml of 40mM Tricine, 10mM EDTA, 5mM pyruvate, 80»M FAD, 25% (v/v) glycerol, 1mM DTT, pH 8, and desalted into 3.5ml of 40mM Tricine, 10mM EDTA, 25% (v/v) glycerol, 1mM DTT, pH 8.
(§4) One hundred microlitres of the enzyme extract was used for each assay. Final reagent concentrations were: 120mM Tricine, 50mM pyruvate, 10mM MgCl₂, […], 93»M thiamine pyrophosphate (TPP), pH 8, in the presence or absence of a herbicide of interest, in a volume of 750 »l. Incubations were carried out at 37°C for 30 minutes. Reactions were stopped with 250»l of 1.84M sulphuric acid, and decarboxylation of the acetolactate carried out at 37°C for 75 minutes, or at 60°C for 30 minutes. Assay blanks had sulphuric acid added prior to the enzyme extract. To the samples and blanks 650»l of α-naphthol in 2.73M NaOH/0.16%(w/v) creatine were added followed by incubation at 37°C for 30 minutes. After centrifugation at 30,000g the optical density of the supernatant was read at 540nm.
(§5) The assay procedure described was carried out on ALS enzyme extracted from each of the nine mutants for the following herbicides: imazethapyr (PURSUIT) imazapyr (ARSENAL) imazaquin (SCEPTER) chlorsulfuron (GLEAN) chlorimuron (CLASSIC) […] (HARMONY) The enzyme activity graphs are given as Figures 3 to 8. In addition, homozygous lines of mutants 1 and 2 which were selected from generation M₁BC₁S₂, were also tested against the same group of herbicides and against representatives of the triazolopyrimidines and phenoxypyrimidines. The chemical structures of these herbicides are shown in Figure 2 of the accompanying drawings.
(§6) From the enzyme assay data it is possible to derive, as a measure of the degree of inhibition the factor ID50% for each mutant and for each herbicide. This factor is indicative of the herbicide concentration which gives 50% inhibition of the ALS activity in comparison with the wild-type control. It is also possible to derive the fold increase in resistance.

[2] = target: ALS enzyme extracted from Mutant 9 (heterozygous); test: ALS enzyme assay, heterozygous Mutant 9; conditions: for pIC50: ALS of heterozygous Mutant 9, read-out: ID50% (the source's name); for resistance group, Enzyme Assay: Mutant 9, groups Strong, Intermediate, Weak, Zero; for Fold Increase: fold increase in resistance vs wild type, heterozygous Mutant 9, 30 min
Procedure: as §1, §2, §3, §4, §5, §6

[3] = target: ALS extracted from leaves of MUTANT 2 (homozygous); test: ALS enzyme assay, homozygous Mutant 2; conditions: for pIC50: ALS of homozygous Mutant 2, read-out: ID50% Mutant; for Fold Increase: fold increase in resistance vs wild type, homozygous Mutant 2, 30 min
Procedure: as §2, §3, §4, §5, §6

[4] = target: ALS enzyme extracted from Mutant 8 (heterozygous); test: ALS enzyme assay, heterozygous Mutant 8; conditions: for pIC50: ALS of heterozygous Mutant 8, read-out: ID50% (the source's name); for resistance group, Enzyme Assay: Mutant 8, groups Strong, Intermediate, Weak, Zero; for Fold Increase: fold increase in resistance vs wild type, heterozygous Mutant 8, 30 min
Procedure: as §1, §2, §3, §4, §5, §6

[5] = target: ALS enzyme extracted from Mutant 3 (heterozygous); test: ALS enzyme assay, heterozygous Mutant 3; conditions: for pIC50: ALS of heterozygous Mutant 3, read-out: ID50% (the source's name); for resistance group, Enzyme Assay: Mutant 3, groups Strong, Intermediate, Weak, Zero; for Fold Increase: fold increase in resistance vs wild type, heterozygous Mutant 3, 30 min
Procedure: as §1, §2, §3, §4, §5, §6

[6] = target: ALS enzyme extracted from Mutant 7 (heterozygous); test: ALS enzyme assay, heterozygous Mutant 7; conditions: for pIC50: ALS of heterozygous Mutant 7, read-out: ID50% (the source's name); for resistance group, Enzyme Assay: Mutant 7, groups Strong, Intermediate, Weak, Zero; for Fold Increase: fold increase in resistance vs wild type, heterozygous Mutant 7, 30 min
Procedure: as §1, §2, §3, §4, §5, §6

[7] = target: ALS enzyme extracted from Mutant 2 (heterozygous); test: ALS enzyme assay, heterozygous Mutant 2; conditions: for pIC50: ALS of heterozygous Mutant 2, read-out: ID50% (the source's name); for resistance group, Enzyme Assay: Mutant 2, groups Strong, Intermediate, Weak, Zero; for Fold Increase: fold increase in resistance vs wild type, heterozygous Mutant 2, 30 min
Procedure: as §1, §2, §3, §4, §5, §6

[8] = target: ALS enzyme extracted from Mutant 10 (heterozygous); test: ALS enzyme assay, heterozygous Mutant 10; conditions: for pIC50: ALS of heterozygous Mutant 10, read-out: ID50% (the source's name); for resistance group, Enzyme Assay: Mutant 10, groups Strong, Intermediate, Weak, Zero; for Fold Increase: fold increase in resistance vs wild type, heterozygous Mutant 10, 30 min
Procedure: as §1, §2, §3, §4, §5, §6

[9] = target: ALS (acetolactate synthase), Wild type; test: ALS enzyme assay, wild-type control; conditions: read-out: ID50% (the source's name)
Procedure: as §1, §2, §3, §4, §5, §6

[10] = target: ALS enzyme extracted from Mutant 5 (heterozygous); test: ALS enzyme assay, heterozygous Mutant 5; conditions: for pIC50: ALS of heterozygous Mutant 5, read-out: ID50% (the source's name); for resistance group, Enzyme Assay: Mutant 5, groups Strong, Intermediate, Weak, Zero; for Fold Increase: fold increase in resistance vs wild type, heterozygous Mutant 5, 30 min
Procedure: as §1, §2, §3, §4, §5, §6

[11] = target: ALS extracted from leaves of MUTANT 1 (homozygous); test: ALS enzyme assay, homozygous Mutant 1; conditions: for pIC50: ALS of homozygous Mutant 1, read-out: ID50% Mutant; for Fold Increase: fold increase in resistance vs wild type, homozygous Mutant 1
Procedure: as §2, §3, §4, §5, §6

[12] = target: ALS enzyme extracted from Mutant 6 (heterozygous); test: ALS enzyme assay, heterozygous Mutant 6; conditions: for pIC50: ALS of heterozygous Mutant 6, read-out: ID50% (the source's name); for resistance group, Enzyme Assay: Mutant 6, groups Strong, Intermediate, Weak, Zero; for Fold Increase: fold increase in resistance vs wild type, heterozygous Mutant 6, 30 min
Procedure: as §1, §2, §3, §4, §5, §6

Row | Structure (SMILES) | pIC50 [1] | resistance group, Enzyme Assay [1] | Fold Increase [1] | pIC50 [2] | resistance group, Enzyme Assay [2] | Fold Increase [2] | pIC50 [3] | Fold Increase [3] | pIC50 [4] | resistance group, Enzyme Assay [4] | Fold Increase [4] | pIC50 [5] | resistance group, Enzyme Assay [5] | Fold Increase [5] | pIC50 [6] | resistance group, Enzyme Assay [6] | Fold Increase [6] | pIC50 [7] | resistance group, Enzyme Assay [7] | Fold Increase [7] | also measured
1 | CC(C)C1(C)N=C(c2ncccc2C(=O)O)NC1=O (stereo not shown) [Imazapyr, imazapyr] | < 3.00 | Strong | >333 | < 3.00 | Strong | >333 | 3.17 | 225 | < 3.00 | Strong | >333 | 5.40 | Weak | 1 | 5.00 | Intermediate | 3 | 3.27 | Strong | 180 | pIC50 [8]: 4.46; resistance group, Enzyme Assay [8]: Strong; Fold Increase [8]: 12; pIC50 ([9]; herbicide concentration giving 50% inhibition of ALS activity): 5.52; pIC50 [10]: 3.52; resistance group, Enzyme Assay [10]: Strong; Fold Increase [10]: 100; pIC50 [11]: < 3.00; Fold Increase ([11]; 30 min): >333; pIC50 [12]: 5.30; resistance group, Enzyme Assay [12]: Intermediate; Fold Increase [12]: 2
2 | COC(=O)c1sccc1S(=O)(=O)NC(=O)Nc1nc(C)nc(OC)n1 [Thiacarburon, thiacarburon] | 7.26 | Weak | 1 | 7.35 | Weak | 1 | 6.44 | 8.5 | 7.40 | Weak | 1 | 7.07 | Weak | 2 | 7.60 | Zero | 1 | 6.49 | Intermediate | 8 | pIC50 [8]: 6.41; resistance group, Enzyme Assay [8]: Intermediate; Fold Increase [8]: 9; pIC50 [9]: 7.37; pIC50 [10]: 6.47; resistance group, Enzyme Assay [10]: Intermediate; Fold Increase [10]: 8; pIC50 [11]: 7.40; Fold Increase [11]: nil; pIC50 [12]: 7.35; resistance group, Enzyme Assay [12]: Weak; Fold Increase [12]: 1
